“Also recorded” adds a separate entry of the source. Where two headings read alike, the source gives them in different places.
Columns and labels:
[1] = tested on: Tachyzoites of the RH strain of T. gondii; experiment: T. gondii tachyzoite growth in human foreskin fibroblasts, 3H uracil uptake and microscopy; format: cell-based; conditions: Toxoplasma gondii, Fibroblast, RH strain tachyzoites in HFF, 3H uracil uptake after four days in culture
Protocol: Tachyzoites of the RH strain of T. gondii were passaged in human foreskin fibroblasts (HFF). They were used to infect fibroblasts to determine antimicrobial effects of candidate compounds. Outcome was assessed with microscopy and uracil uptake after four days in culture as described,[12],[13]. Briefly, for testing of inhibitors in vitro against T. gondii tachyzoites, four-day old confluent cultures of human foreskin fibroblasts (HFF) were infected with 10^3 tachyzoites and cultured for 1 hour to allow parasite invasion. Inhibitor was added and cells cultured for 3 days. They were supplemented with ^3H uracil and incubation extended for a further day, whereupon uracil incorporation into cells and thus parasite growth were assessed by liquid scintillation counting,[12],[13]. Studies were performed with inhibitors as described in [8],[12],[13].
For in vitro studies, a stock solution of JPC-2067-B was initially dissolved in 100% dimethyl sulfoxide (DMSO) and then diluted in complete tissue culture medium (IMDM-C) [IMDM with NaHCO3 and 25 mM Hepes (Cambrex Bio Science, Walkersville, MD), 10% fetal bovine serum (Gibco, Grand Island, N.Y.), 1× antibiotic-antimycotic solution (Cellgro, Mediatech), and 2 mM L-glutamine (Gibco). Working concentrations of JPC-2067-B were made using IMDM-C. Concentrations measured ranged from 10 to 100 nM. […]

T. gondii = experiment: Cidal test: cultures kept 52 days after removing compound on the 4th day; format: cell-based, Toxoplasma gondii; conditions: exposed 4 days, compound removed, cultured 52 days
Text: In separate experiments, to determine whether JPC-2067-B would be cidal for T. gondii, cultures were maintained for 52 days after removing JPC-2067-B on the 4th day of culture.

Pc DHFR = target: T1, Pc DHFR (Pneumocystis carinii, UniProt P16184); experiment: Spectrophotometric DHFR assay, Pneumocystis carinii DHFR; format: biochemical; conditions: 37°C; (95% confidence limits); read-out: Pc DHFR IC50
T1 construct: made in house; host or cells: Escherichia coli
T1 sequence (P16184 1-206): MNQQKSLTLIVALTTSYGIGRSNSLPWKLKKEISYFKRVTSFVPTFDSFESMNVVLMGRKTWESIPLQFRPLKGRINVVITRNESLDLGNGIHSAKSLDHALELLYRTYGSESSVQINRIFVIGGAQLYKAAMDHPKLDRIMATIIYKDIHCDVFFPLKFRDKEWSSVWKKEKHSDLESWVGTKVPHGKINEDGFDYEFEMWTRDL
Text: DHFR from Pneumocystis carinii was produced as the recombinant enzyme expressed in Escherichia coli. […] DHFR from T. gondii was isolated directly from RH strain T. gondii grown in culture on Chinese hamster ovary cells lacking DHFR (CHO/dhfr^-, American Type Culture Collection 3952 CL). Organisms were introduced into a confluent monolayer and harvested when the mammalian cells were lysed. The 100,000× g supernate was stored in liquid nitrogen.
The spectrophotometric assay for DHFR was optimized for temperature and concentration of substrate and cofactor for each enzyme. The standard assay contained Na phosphate buffer pH 7.4 (40.7 mM), 2-mercaptoethanol (8.9 mM), NADPH (0.117 mM), dihydrofolic acid (0.09 mM), KCL (150 mM), and sufficient enzyme to produce a change in OD340 of 0.035/minute at 37°C. The reaction was continuously recorded for 3 minutes. […] The low background activity in the absence of dihydrofolic acid was subtracted from all rates.
(§1) DHFR was assayed with several concentrations of inhibitor to produce rates ranging from 1 to 90% of the uninhibited rate. At least three concentrations were required for calculation; most curves contained five concentrations.

Mav DHFR = target: T2, Mav DHFR (Mycobacterium avium, UniProt O30463); experiment: Spectrophotometric DHFR assay, Mycobacterium avium-intracellulare DHFR; format: biochemical; conditions: 37°C; (95% confidence limits)
T2 construct: the bacteria were centrifuged, sonicated, and the 100,000 Xg supernate was stored under liquid nitrogen until assay; endogenous in cells; host or cells: M. avium-intracellulare clinical isolate (serovar 4), Indiana University School of Medicine
T2 sequence (O30463 1-181): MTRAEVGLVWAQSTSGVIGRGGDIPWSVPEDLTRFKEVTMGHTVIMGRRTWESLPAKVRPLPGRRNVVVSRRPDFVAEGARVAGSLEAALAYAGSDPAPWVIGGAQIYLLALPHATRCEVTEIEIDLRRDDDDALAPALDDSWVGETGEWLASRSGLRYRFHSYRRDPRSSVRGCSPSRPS
Protocol: Mycobacterium avium-intracellulare used in these studies was a clinical isolate (serovar 4) from Indiana University School of Medicine, Department of Pathology. The strain was maintained on Lowenstein-Jensen slants (Baxter Scientific) grown at room temperature. To produce enzyme, the organism was grown in Middlebrook 7H-9 liquid medium at 37°C to an OD660 of 0.5 to 0.7, which took several weeks. At harvest, the bacteria were centrifuged, sonicated, and the 100,000 Xg supernate was stored under liquid nitrogen until assay. These supernates contained both DHFR and dihydroopteroate synthetase activity.
The spectrophotometric assay for DHFR was optimized for temperature and concentration of substrate and cofactor for each enzyme. The standard assay contained Na phosphate buffer pH 7.4 (40.7 mM), 2-mercaptoethanol (8.9 mM), NADPH (0.117 mM), dihydrofolic acid (0.09 mM), KCL (150 mM), and sufficient enzyme to produce a change in OD340 of 0.035/minute at 37°C. The reaction was continuously recorded for 3 minutes. Activity under these conditions was linear with enzyme concentration over a 4-fold range. The low background activity in the absence of dihydrofolic acid was subtracted from all rates.
as §1

PfDHFR = PfDHFR (Plasmodium falciparum, UniProt Q8I1R6); experiment: Plate reader DHFR assay, recombinant P. falciparum DHFR; format: biochemical
Text: DHFR from T. gondii prepared as above was also directly compared to purified recombinant P. falciparum DHFR (pfDHFR) and purified recombinant human DHFR (hDHFR). The hDHFR was from pDFR plasmid. The enzyme was purified following ammonium sulfate precipitation, methotrexate:agarose affinity chromatography, and finally a Superdex 200 size exclusion column. The pfDHFR isolation methods were those reported previously,[44]. […] The same buffer as used in the other assays comparing T. gondii DHFR with DHFRs from rat liver P. carinii and M. avium intracellulare was used but the maximal activity, temperature, and length of observation were adjusted for assays on the specific plate reader. […] The reaction was setup at 23°C, the plate loaded, and the OD340 recorded at 20 second intervals for 10 minutes. The first 8 minutes were used to generate linear fit slopes in Excel. […] Results are expressed as the percent of control activity versus log concentration of inhibitor. Prism 5.0 was used to generate curves from 12 different concentrations of inhibitor using a non-linear fit method.

PfDHFR, sequence (Q8I1R6 entry or part of it): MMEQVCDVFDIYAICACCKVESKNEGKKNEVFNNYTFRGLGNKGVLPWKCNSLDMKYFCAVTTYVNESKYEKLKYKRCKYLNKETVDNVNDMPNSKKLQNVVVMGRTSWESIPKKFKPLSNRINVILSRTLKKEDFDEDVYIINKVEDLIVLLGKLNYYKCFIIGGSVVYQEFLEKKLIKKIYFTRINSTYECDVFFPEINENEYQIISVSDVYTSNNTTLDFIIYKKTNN

CC1(C)N=C(N)N=C(N)N1OCCCOc1ccc(OC(F)(F)F)cc1Cl [JPC-2067-B, 4,6-diamino-1,2-dihydro-2,2-dimethyl-1-(3′(2-chloro-, 4-trifluoromethoxyphenoxy)propyloxy)-1,3,5-triazine]
IC50 [1]: 20 nM
IC90 ([1]; read-out: IC90, T. gondii tachyzoites in tissue culture): 50 nM
Plaques or growth of parasites after removal of compound (cidal effect) (T. gondii): No plaques or Toxoplasma were seen throughout 52 days of culture; also recorded: No plaques or growth of parasites were detected
IC50 (Pc DHFR): 3.93 nM
IC50 (Mav DHFR): 3.75 nM
IC50 (PfDHFR; recombinant, 23°C, (95% Confidence Intervals), read-out: PfDHFR IC50): 3.88 nM
IC50 (PfDHFR; text to Figure 5 and Table 2, read-out: IC50 for P. falciparum DHFR): 3.9 nM
